# Where a SMILES comes first, the peptide text is derived from it.
# Assays:
# COL1A1 promoter = COL1A1 promoter luciferase reporter inhibition assay in LX-2 cells; format: cell-based, human; settings: for inhibition at 500 µM: Homo sapiens, read-out: Inhibitory Rate (%) of COL1A1 promotor; for relative fluorescence unit (RFU) of COL1A1 promotor: mean ± SD, n = 3, Control 124874.7 ± 10750.9;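 as to all read-outs here: Anti-fibrotic screen: luciferase reporter driven by the COL1A1 promoter in human hepatic stellate LX-2 cells, compounds applied in complete medium in 96-well plates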
# Procedure: A total of 32 target compounds, the lead compound L-Asp, and the positive control epigallocatechin gallate (EGCG), known for its anti-hepatic fibrotic activity [29], were tested for inhibitory effects on COL1A1 promoter activity at a concentration of 0.5 mM.
# The LX-2 cells at 90% confluent were transfected with the plasmid of pGL4.17-COL1A1 promoter using Lipofectamine 2000 (Invitrogen, 11668019, Carlsbad, CA, USA) with Opti-MEM serum-free medium (Gibco, 1930104). After culturing for 6 h, the cells were replaced with a complete medium and seeded in 96-well plates for 24 h. The compound to be tested was prepared using a complete medium and added to the 96-well plate. After 24 h, Bright-Glo Luciferase Assay System (Promega, Madison, WI, USA) was used to detect the activity of COL1A1 promoter and the assaying inhibition rate.
# [1] = tested on: IKKβ-NF-κB signaling pathway; assay: LPS-induced inflammation in LX-2 cells (western blot); format: cell-based, human; settings: LPS 1 μg/mL, 24 h, 500 μM bands scanned
# Procedure: Inflammation is crucial in the onset and progression of liver fibrosis, and fibrosis can further exacerbate tissue inflammation. […] To assess the anti-inflammatory effects of Compounds 41 and 8a, LX-2 cells were pre-incubated in serum-free medium for 24 h before LPS stimulation, followed by treatment with different concentrations of the compounds in serum-free medium containing 1 μg/mL LPS for another 24 h. Changes in inflammatory cytokine protein levels were analyzed using western blotting.
# The IKKβ-NF-κB signaling pathway has been closely linked to the severity of liver fibrosis, with IKKβ serving as the primary catalytic subunit responsible for NF-κB activation. Therefore, this study investigated the NF-κB pathway by measuring IKKβ kinase activity. […] To evaluate the effects of the target compounds on LPS-induced inflammatory cytokines, four concentrations (50, 100, 200 and 500 μmol/L) were tested, and the results were analyzed by grayscale scanning of western blot bands using ImageJ software (version 1.53t), with normalization to GAPDH protein levels.
# After the confluence of LX-2 cells reached 90%, the cells were treated with serum-free medium for 24 h. 2 ng/mL TGFβ1 or 1 μg/mL LPS were used in combination with compounds of different concentrations for 24 h. The samples of cells were lysed in RIPA buffer supplemented with protease inhibitor cocktail (Roche) and separated by SDS-PAGE. After the proteins were transferred to the PVDF membrane, 5% skim milk in TBS-T buffer was used to block them at room temperature for 2 h. Specific primary and secondary antibodies were used to detect the target protein. Finally, the blot was visualized using the Tanon 5200 system (Tanon, Shanghai, China) and the protein expression of GAPDH was used as the internal reference.
melting point,Structure (SMILES),"inhibition at 500 µM (COL1A1 promoter; LX-2 cells, 0.5 mM, 24 h)",relative fluorescence unit (RFU) of COL1A1 promotor (COL1A1 promoter; LX-2 cells),"fold decrease in COL1A1 promoter inhibitory activity relative to 45 (COL1A1 promoter; 0.5 mM, versus 45)","Inhibitory Rate (%) of COL1A1 promotor (COL1A1 promoter; LX-2 cells, 0.5 mM, 24 h)",inhibition of inflammatory factors [1]
,"CNC(=O)C[C@H](N)C(=O)O [Compound 4c, N^4-methyl-L-asparagine]",35.5 ± 18.1%,80485.7 ± 22615.1 RFU,,,
,"N[C@@H](CC(=O)OCc1cc(=O)n2ccsc2n1)C(=O)O [Compound 37, (S)-2-amino-4-oxo-4-((5-oxo-5H-thiazolo [3,2-a]pyrimidin-7-yl)methoxy)butanoic acid]",8.46 ± 8.16%,114307.8 ± 10191.8 RFU,,,
,"Cc1cc(=O)n2c(CNc3ccccn3)csc2n1 [Compound 32a, 7-methyl-3-((pyridin-2-ylamino)methyl)-5H-thiazolo [3,2-a]pyrimidin-5-one]",47.7 ± 4.81%,65321.0 ± 6005.7 RFU,,,
113.6 to 115.1 °C,"O=C(O)C[C@H](NC(=O)OCC1c2ccccc2-c2ccccc21)C(=O)NCCO [Compound 5, (S)-3-((((9H-fluoren-9-yl)methoxy)carbonyl)amino)-4-((2-hydroxyethyl)amino)-4-oxobutanoic acid]",24 ± 15.4%,94919.5 ± 19273.7 RFU,,,
205.1 to 207.3 °C,"Cc1ccc(COC(=O)[C@@H](N)CC(=O)O)cc1 [Compound 11d, (S)-3-amino-4-((4-methylbenzyl)oxy)-4-oxobutanoic acid]",19.9 ± 4.99%,100087.5 ± 6229.2 RFU,,,
268.9 to 271.2 °C,"N[C@@H](CC(=O)Nc1nccs1)C(=O)O [Compound 4b, N^4-(thiazol-2-yl)-L-asparagine]",31.2 ± 14.3%,85934.6 ± 17864.6 RFU,,,
,"Cc1oc(COC(=O)C[C@H](N)C(=O)O)cc(=O)c1O [Compound 23b, (S)-2-amino-4-((5-hydroxy-6-methyl-4-oxo-4H-pyran-2-yl)methoxy)-4-oxobutanoic acid]",34.6 ± 1.75%,81660.6 ± 2179.5 RFU,,,
156.1 to 157.5 °C,"CN[C@@H](CCC(=O)O)C(=O)O [Compound 1, Methyl-L-glutamic acid]",< 0%,143674.9 ± 32109.7 RFU,,,
195.3 to 198.6 °C,"NC(=O)C[C@H](N)C(=O)N[C@@H](CC(=O)O)C(=O)O [Compound 8b, L-asparaginyl-L-aspartic acid] (H-Asn-Asp-OH)",23.8 ± 4.57%,95132.4 ± 5710.5 RFU,,,
190.6 to 192.1 °C,"N[C@@H](CC(=O)O)C(=O)OCc1ccc([N+](=O)[O-])cc1 [Compound 11f, (S)-3-amino-4-((4-nitrobenzyl)oxy)-4-oxobutanoic acid]",20.6 ± 14.3%,99123.6 ± 17860.3 RFU,,,
197.6 to 199.5 °C,"N[C@@H](CC(=O)O)C(=O)OCc1ccc(F)cc1 [Compound 11e, (S)-3-amino-4-((4-fluorobenzyl)oxy)-4-oxobutanoic acid]",27.9 ± 5.81%,89998.6 ± 7257.5 RFU,,,
228.1 to 229.6 °C,"Cc1ccc(COC(=O)C[C@H](N)C(=O)O)cc1 [Compound 11a, (S)-2-amino-4-((4-methylbenzyl)oxy)-4-oxobutanoic acid]",11.4 ± 18.5%,110620.0 ± 23148.4 RFU,,,
127.2 to 129.6 °C,"COC(=O)[C@H]1C[C@H](Oc2cc(C)nn3c(-c4ccc(OC)c(OC)c4)cnc23)CN1 [Compound 43, Methyl (2R,4S)-4-((3-(3,4-dimethoxyphenyl)-6-methylimidazo [1,2-b]pyridazin-8-yl)oxy)pyrrolidine-2-carboxylate]",38.2 ± 3.28%,77132.5 ± 4101.8 RFU,1.8 fold,,
253.1 to 256.8 °C,"Cc1cc(=O)n2c(CC(=O)N[C@@H](CC(=O)O)C(=O)O)csc2n1 [Compound 35, (2-(7-methyl-5-oxo-5H-thiazolo [3,2-a]pyrimidin-3-yl)acetyl)-L-aspartic acid]",< 0%,161478.3 ± 67708.9 RFU,,,
,"N[C@@H](CC(=O)O)C(=O)NCCO [Compound 6, (S)-3-amino-4-((2-hydroxyethyl)amino)-4-oxobutanoic acid]",< 0%,128613.0 ± 57574.1 RFU,,,
227.6 to 230.2 °C,"N[C@@H](CC(=O)OCc1ccc(F)cc1)C(=O)O [Compound 11b, (S)-2-amino-4-((4-fluorobenzyl)oxy)-4-oxobutanoic acid]",< 0%,130725.3 ± 8310.2 RFU,,,
,"CCNC(=O)C[C@H](N)C(=O)O [Compound 4d, N^4-ethyl-L-asparagine]",33.1 ± 19%,,,,
,"Cc1cc(=O)n2c(CN[C@@H](CC(=O)O)C(=O)O)csc2n1 [Compound 33, ((7-methyl-5-oxo-5H-thiazolo [3,2-a]pyrimidin-3-yl)methyl)-L-aspartic acid]",6.39 ± 7.06%,116893.2 ± 8812.8 RFU,,,
,"Cn1cc(O)c(=O)cc1CC(N)C(=O)O (stereo not drawn) [Compound 20b, 2-amino-3-(5-hydroxy-1-methyl-4-oxo-1,4-dihydropyridin-2-yl)propanoic acid]",24 ± 6.38%,94881.8 ± 7963.9 RFU,,,
257.8 to 259.4 °C,"N[C@@H](CC(=O)Nc1nc(CO)cs1)C(=O)O [Compound 4a, N^4-(4-(hydroxymethyl)thiazol-2-yl)-L-asparagine]",14.9 ± 8.45%,106237.2 ± 10544.5 RFU,,,
,"Cc1cc(=O)n2c(CC(=O)N[C@H]3CCOC3=O)csc2n1 [Compound 34a, (S)-2-(7-methyl-5-oxo-5H-thiazolo [3,2-a]pyrimidin-3-yl)-N-(2-oxotetrahydrofuran-3-yl)acetamide]",15.5 ± 16.6%,105579.0 ± 20740.0 RFU,,,
,"O=C(O[C@@H]1Cc2c(O)cc(O)cc2O[C@@H]1c1cc(O)c(O)c(O)c1)c1cc(O)c(O)c(O)c1 [EGCG, epigallocatechin gallate, reference compound]",,79340.1 ± 5808.7 RFU,,36.46 ± 4.64%,
217.1 to 219.8 °C,"NC(Cc1cc(=O)c(O)co1)C(=O)O (stereo not drawn) [Compound 20a, 2-amino-3-(5-hydroxy-4-oxo-4H-pyran-2-yl)propanoic acid]",17.9 ± 10.1%,102508.7 ± 12580.9 RFU,,,
,"Cc1cc(=O)n2c(CNC(=O)[C@H](N)CCO)csc2n1 [Compound 29, (R)-2-amino-4-hydroxy-N-((7-methyl-5-oxo-5H-thiazolo [3,2-a]pyrimidin-3-yl)methyl)butanamide]",33.2 ± 33.3%,83406.5 ± 41616.9 RFU,,,
156.3 to 158.7 °C,"N[C@@H](CC(=O)OCc1cc(=O)c(O)co1)C(=O)O [Compound 23a, (S)-2-amino-4-((5-hydroxy-4-oxo-4H-pyran-2-yl)methoxy)-4-oxobutanoic acid]",27.9 ± 1.16%,90057.5 ± 1452.6 RFU,,,
218 to 220.2 °C,"Cc1cc(=O)n2c(CNC(=O)c3cccc(F)c3F)csc2n1 [Compound 28a, 2,3-difluoro-N-((7-methyl-5-oxo-5H-thiazolo [3,2-a]pyrimidin-3-yl)methyl)benzamide]",43.9 ± 6.36%,70040.5 ± 7951.7 RFU,,,
,"Cc1cc(=O)n2c(COC(=O)C[C@H](N)C(=O)O)csc2n1 [Compound 31, (S)-2-amino-4-((7-methyl-5-oxo-5H-thiazolo [3,2-a]pyrimidin-3-yl)methoxy)-4-oxobutanoic acid]",14.6 ± 3.11%,106608.6 ± 3888.3 RFU,,,
207.2 to 209.5 °C,"N[C@@H](CC(=O)OCc1ccc([N+](=O)[O-])cc1)C(=O)O [Compound 11c, (S)-2-amino-4-((4-nitrobenzyl)oxy)-4-oxobutanoic acid]",< 0%,158140.3 ± 50740.1 RFU,,,
,"N[C@@H](CC(=O)O)C(=O)O [L-Asp, L-aspartic acid, reference compound]",11.3 ± 0.35%,110724.3 ± 444.6 RFU,,,moderate inhibition
